# Tested on: endoperoxide cyclooxygenase (PG synthetase)
# Assay: Inhibition of oxygen uptake in the conversion of unsaturated fatty acid to prostaglandin endoperoxides (cyclooxygenase / PG synthetase inhibition, standard in vitro laboratory test)
# Format: biochemical
# From the text: The novel prostacyclin analogs disclosed herein are all inhibitors of endoperoxide cyclooxygenase, an enzyme which converts unsaturated fatty acids (e.g., arachadonic acid) to prostaglandin endoperoxide intermediate (e.g., PGH2). The inhibition of this enzyme (also known as PG synthetase) is established as a standard in vitro laboratory test which measures oxygen uptake in the conversion of the unsaturated fatty acid to the endoperoxides, e.g., [drawing 22]
# The efficacy of the novel prostacyclin analogs herein as inhibitors of cyclooxygenase (PG synthetase) is indicated in the following comparison between 2-(acetylozy)benzoic acid (aspirin) and 7,8-didehydro-6β-PGI1, methyl ester:
# For further description of PG synthetase inhibition, see Vane, Nature New Biology, 231-232 (1971) and Takeguchi, et al., Prostaglandins 2:169 (1972).
Compound,Percent inhibition of Oxygen Uptake (Concentration 5 × 10^-4 M) [%],"Percent inhibition of Oxygen Uptake (Concentration 5 × 10^-5 M, result in words)"
"CC(=O)Oc1ccccc1C(=O)O [2-(Acetyloxy)-benzoic acid, 2-(acetyloxy)benzoic acid]",100,Inactive
"CCCCC[C@H](O)/C=C/[C@@H]1C2=C[C@H](CCCCC(=O)OC)O[C@H]2C[C@H]1O [7,8-Didehydro-6β-PGI methyl ester, 7,8-didehydro-6β-PGI1, methyl ester]",46,–

# Reference: US4160095A, “7,8-Didehydro-PGI1 amides” (The Upjohn Company, priority 1978, dated 1979)
